Results published in paper PMC12627810 (Nature Communications, 2025).
Values joined by “and” are separate entries in the source; they are usually repeats but may differ in a detail not shown here. Identical values can stand only once. Like-named read-outs stand apart in the source and are kept apart here.

Legend:
SERT WT [1] = biological target: T1, SERT WT (Homo sapiens, UniProt P31645); assay: [3H]5-HT uptake inhibition, intact COS-7 cells expressing SERT WT; format: cell-based
SERT WT [2] = biological target: T1, SERT WT; settings: previous study; cited from earlier work
SERT F556Anap (purified) [3] = assay: Real-time Anap fluorescence measurements, SERT F556Anap; format: binding, human; settings: 200 nM vilazodone after 30 min preincubation with 100 nM imipramine, Na+
SERT V86Anap (purified) = assay: Anap fluorescence emission spectra, SERT V86Anap; set-up: species or system human; settings: 200 nM ligand
[4] = tested on: SERT-expressing membranes; settings: cited from earlier work
SERT allosteric site = settings: S1-bound [3H]imipramine; cited from earlier work
SERT F556Anap (purified) [5] = assay: Anap fluorescence emission spectra, SERT F556Anap; set-up: species or system human; settings: 200 nM ligand

T1 sequence (P31645 whole entry): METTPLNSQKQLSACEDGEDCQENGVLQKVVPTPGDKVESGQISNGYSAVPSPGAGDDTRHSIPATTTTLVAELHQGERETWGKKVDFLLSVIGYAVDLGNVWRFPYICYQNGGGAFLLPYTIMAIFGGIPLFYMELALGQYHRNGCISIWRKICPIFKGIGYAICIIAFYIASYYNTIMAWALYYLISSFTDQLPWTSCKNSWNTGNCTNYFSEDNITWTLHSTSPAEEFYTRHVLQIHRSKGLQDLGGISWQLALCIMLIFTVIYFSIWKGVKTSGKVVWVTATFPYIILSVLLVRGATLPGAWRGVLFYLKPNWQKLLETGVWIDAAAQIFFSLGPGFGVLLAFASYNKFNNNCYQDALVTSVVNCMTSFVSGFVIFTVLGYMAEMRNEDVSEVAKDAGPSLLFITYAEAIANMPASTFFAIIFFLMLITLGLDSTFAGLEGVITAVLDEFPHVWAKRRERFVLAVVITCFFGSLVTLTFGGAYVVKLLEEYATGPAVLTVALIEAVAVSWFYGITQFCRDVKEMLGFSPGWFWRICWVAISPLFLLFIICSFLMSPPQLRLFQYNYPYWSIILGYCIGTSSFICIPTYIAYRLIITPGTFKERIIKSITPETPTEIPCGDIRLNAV

In the case of `N#Cc1ccc2[nH]cc(CCCCN3CCN(c4ccc5oc(C(N)=O)cc5c4)CC3)c2c1` [vilazodone], the “Hill coefficient (vilazodone)” value (SERT WT [1]; SERT WT) is listed as over 1, the “5-HT uptake inhibition by vilazodone in presence of Fab 15B8” value (SERT WT [1]; preincubation with 100 nM Fab 15B8 vs buffer, whole cells) is listed as “unchanged” and the “Hill coefficient of inhibition of [3H]5-HT uptake” value (SERT WT [2]) is listed as 1.8 and ~ 1.8. For the same molecule, the “τ of time-dependent change in fluorescence, imipramine-bound SERT” value (SERT F556Anap (purified) [3]) was 0.8 ± 0.18 min, the “change of V86Anap fluorescence emission” value (SERT V86Anap (purified); 200 mM K+) was “increasing the fluorescence” and the “change of V86Anap fluorescence emission” value (SERT V86Anap (purified); 200 mM Na+) was “decreased the fluorescence”. The “affinity, SERT-expressing membranes” value ([4]; K+) was 36.7 nM, the “affinity, SERT-expressing membranes” value ([4]; Na+) was 5.8 nM and the “allosteric potency (inhibition of dissociation of pre-bound [3H]imipramine)” value (SERT allosteric site) was 14 nM and ~ 14 nM. The “change of F556Anap fluorescence emission” value (SERT F556Anap (purified) [5]; 200 mM K+) was “red-shifted and increase in fluorescence”, the “change of F556Anap fluorescence emission” value (SERT F556Anap (purified) [5]; 200 mM NMDG+) was “decrease in quantum yield and a blue-shift” and the “change of F556Anap fluorescence emission” value (SERT F556Anap (purified) [5]; 200 mM Na+) was “large decrease in intensity accompanied by a blue-shift”.
